Reference: ChEMBL document CHEMBL1201862, “PubChem BioAssay data set” (2004)
Active and inactive are the calls of the source.

Columns and labels:
[1] = molecular target: T1, Tyrosine-protein phosphatase non-receptor type 7 (Homo sapiens, UniProt P35236); experiment: HePTP tyrosine phosphatase activity blockers – biochemical, absorbance, leukemia target, primary screen (AID 521); assay type: functional
T1 sequence (P35236 whole entry): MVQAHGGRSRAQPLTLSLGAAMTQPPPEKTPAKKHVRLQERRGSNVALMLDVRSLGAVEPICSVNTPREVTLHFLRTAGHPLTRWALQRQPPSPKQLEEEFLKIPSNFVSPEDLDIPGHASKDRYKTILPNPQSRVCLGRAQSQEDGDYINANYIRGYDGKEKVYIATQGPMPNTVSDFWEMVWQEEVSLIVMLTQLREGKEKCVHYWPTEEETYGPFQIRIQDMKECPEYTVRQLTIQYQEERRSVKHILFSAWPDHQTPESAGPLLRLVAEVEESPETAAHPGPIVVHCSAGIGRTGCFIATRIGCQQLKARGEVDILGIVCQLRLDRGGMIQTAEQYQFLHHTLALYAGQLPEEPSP

Ephrin type-A receptor 4 = Ephrin type-A receptor 4 (Mus musculus, UniProt Q03137); experiment: EphA4 ligand-binding antagonists – biochemical, colorimetric, mouse EphA4, primary screen (AID 689); assay type: functional
cells [2] = experiment: cells
[3] = molecular target: Mitogen-activated protein kinase 10 (Homo sapiens, UniProt P53779); experiment: Dose response biochemical screening assay for inhibitors of c-Jun N-Terminal Kinase 3 (JNK3). [Related pubchem assays: 746 ]
Major prion protein = Major prion protein (Homo sapiens, UniProt P04156); assay type: functional, cell-based
[4] = molecular target: T2, Oxysterols receptor LXR-beta (Homo sapiens, UniProt P55055); experiment: LXR agonists, Gal4 luciferase reporter, dose response, counter-screen for ssDAF-12 agonist project, cell-based, luminescence, HEK293, S. stercoralis campaign (AID 720737); assay type: functional; settings: read-out: IC50 (the source's name)
T2 sequence (P55055 whole entry): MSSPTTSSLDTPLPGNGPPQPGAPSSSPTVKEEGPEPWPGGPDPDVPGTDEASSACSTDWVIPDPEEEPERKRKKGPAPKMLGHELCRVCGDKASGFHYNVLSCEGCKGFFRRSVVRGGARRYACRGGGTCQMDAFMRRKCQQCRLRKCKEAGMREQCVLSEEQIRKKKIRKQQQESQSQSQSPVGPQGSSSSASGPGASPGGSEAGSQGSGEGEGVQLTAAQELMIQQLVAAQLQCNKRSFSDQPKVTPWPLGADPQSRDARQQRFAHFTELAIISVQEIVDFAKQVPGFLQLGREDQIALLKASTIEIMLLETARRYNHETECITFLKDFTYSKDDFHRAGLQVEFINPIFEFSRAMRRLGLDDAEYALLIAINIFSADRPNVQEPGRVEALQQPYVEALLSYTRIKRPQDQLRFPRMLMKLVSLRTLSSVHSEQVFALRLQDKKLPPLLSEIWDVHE

[5] = Luminescence-based cell-based high throughput dose response assay to identify activators of the DAF-12 from the parasite S. stercoralis (ssDAF-12).; assay type: functional
[6] = viability inhibitors of stage V gametocytes – luminescence, dose response (AID 1117278); assay type: functional, cell-based;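 also: gametocytes exposed to compound for 24 hours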
[7] = viability loss in human Jurkat cells – cell-based, luminescence, cytotoxicity control for P. falciparum gametocyte viability project, dose response (AID 1117277); assay type: functional;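 also: potency reflects loss of cellular ATP meaning fewer viable cells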
[8] = molecular target: E3 ubiquitin-protein ligase Mdm2 (Homo sapiens, UniProt Q00987); experiment: MDM2-luc reporter signal enhancers, multi-concentration potency testing, MDM2 ubiquitin-protein ligase inhibitor program, whole-cell format, luminescence detection, 384-well microplate (AID 1394); assay type: functional;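 also: MDM2 E3 inhibitors raise luminescence so EC50 is for signal enhancement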
[9] = molecular target: Peroxisome proliferator-activated receptor gamma/Nuclear receptor coactivator 2 (Homo sapiens, UniProt P37231); experiment: TR-FRET dose response biochemical High Throughput Screening assay for agonists of the steroid receptor coactivator 2 (SRC-2) recruitment by the peroxisome proliferator-activated receptor gamma (PPAR gamma): non-selective agonists. [Related pubchem assays: 1297, 1032 ]; assay type: functional
[10] = molecular target: Peroxisome proliferator-activated receptor gamma/Nuclear receptor coactivator 3 (Homo sapiens, UniProt P37231); experiment: TR-FRET dose response biochemical High Throughput Screening assay for agonists of the steroid receptor coactivator 3 (SRC-3) recruitment by the peroxisome proliferator-activated receptor gamma (PPAR gamma): non-selective agonists. [Related pubchem assays: 1301 (Confirmation screen.), 1048 (Primary screen.)]; assay type: functional
[11] = molecular target: Peroxisome proliferator-activated receptor gamma/Nuclear receptor coactivator 1 (Homo sapiens, UniProt P37231); experiment: TR-FRET dose response biochemical High Throughput Screening assay for agonists of the steroid receptor coactivator 1 (SRC-1) recruitment by the peroxisome proliferator-activated receptor gamma (PPAR gamma): non-selective agonists. [Related pubchem assays (depositor defined):AID1300, AID1808, AID504735, AID631]; assay type: protein assay
[12] = molecular target: T3, Heat shock factor protein 1 (Mus musculus, UniProt P38532); experiment: decrease of HSF1-responsive luciferase luminescence – cell-based, NIH3T3, dose retest, confirmation (AID 2382); assay type: functional;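 also: NIH3T3 fibroblasts with HSF1-driven luciferase reporter stressed by proteasome inhibitor MG132; luminescence from HSF1-driven luciferase expression after 8 hours of MG132 stress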
T3 sequence (P38532 whole entry): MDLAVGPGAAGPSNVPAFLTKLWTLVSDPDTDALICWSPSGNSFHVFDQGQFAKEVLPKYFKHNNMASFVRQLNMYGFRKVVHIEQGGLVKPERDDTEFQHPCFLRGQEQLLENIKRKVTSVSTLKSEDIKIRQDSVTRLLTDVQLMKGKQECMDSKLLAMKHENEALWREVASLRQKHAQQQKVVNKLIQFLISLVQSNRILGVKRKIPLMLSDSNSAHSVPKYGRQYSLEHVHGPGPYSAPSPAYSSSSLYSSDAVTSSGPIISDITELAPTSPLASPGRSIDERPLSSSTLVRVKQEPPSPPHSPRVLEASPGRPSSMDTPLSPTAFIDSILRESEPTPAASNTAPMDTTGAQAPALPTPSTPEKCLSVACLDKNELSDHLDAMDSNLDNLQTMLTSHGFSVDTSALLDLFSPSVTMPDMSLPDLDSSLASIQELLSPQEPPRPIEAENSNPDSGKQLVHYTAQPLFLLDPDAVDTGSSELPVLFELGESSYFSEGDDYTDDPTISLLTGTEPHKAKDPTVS

BJ [13] = experiment: cells; assay type: functional, cell-based; settings: Homo sapiens
[14] = DRD fibroblast viability loss – cell-based, non-viral oncogenic, luminescence, dose response (AID 1934); assay type: functional; settings: Homo sapiens
BJ [15] = experiment: BJ-TERT fibroblast viability loss – cell-based, RAS-independent, luminescence, dose response (AID 1933); assay type: functional; settings: Homo sapiens
[16] = non-specific 3'UTR reporter inhibition in Clone20-Shn3RL – cell-based, Renilla luciferase, cherry-picked, counter-screen for Shn3 inhibitor project, dose response (AID 624133); assay type: functional
[17] = reduction of Shn3 3'UTR-driven luciferase in osteoblasts – cell-based, Clone20 osteoblasts, firefly luciferase, cherry-picked, dose response (AID 624132); assay type: functional;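 also: firefly luciferase luminescence from reporter carrying the Shn3 3'UTR in osteoblasts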
[18] = loss of viability in HepG2 cells – cell-based, CellTiter-Glo, cherry-picked, cytotoxicity control for Shn3 inhibitor project, dose response (AID 624134); assay type: functional
[19] = HEK-293T viability loss after treatment – luminescence, T-cell screen hits, cytotoxicity control for TCR NF-kB inhibitor project, dose response (AID 489026); assay type: functional, cell-based;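 also: cells exposed to compound about 14 hours before the viability readout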
BJ [20] = experiment: BJ-TERT-LT-ST fibroblast viability loss – cell-based, RAS-independent, luminescence, dose response (AID 1935); assay type: functional; settings: Homo sapiens;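 also: BJ fibroblasts immortalized with TERT plus LT and ST oncogenes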
[21] = molecular target: T4, Corticotropin-releasing factor receptor 2/Corticotropin-releasing factor-binding protein (Homo sapiens, UniProt P24387+Q13324); experiment: Dose Response confirmation of uHTS hits for small molecule antagonists of the CRF-binding protein and CRF-R2 receptor complex.; assay type: functional; settings: read-out: IC50_Mean
T4 sequence (Q13324 whole entry): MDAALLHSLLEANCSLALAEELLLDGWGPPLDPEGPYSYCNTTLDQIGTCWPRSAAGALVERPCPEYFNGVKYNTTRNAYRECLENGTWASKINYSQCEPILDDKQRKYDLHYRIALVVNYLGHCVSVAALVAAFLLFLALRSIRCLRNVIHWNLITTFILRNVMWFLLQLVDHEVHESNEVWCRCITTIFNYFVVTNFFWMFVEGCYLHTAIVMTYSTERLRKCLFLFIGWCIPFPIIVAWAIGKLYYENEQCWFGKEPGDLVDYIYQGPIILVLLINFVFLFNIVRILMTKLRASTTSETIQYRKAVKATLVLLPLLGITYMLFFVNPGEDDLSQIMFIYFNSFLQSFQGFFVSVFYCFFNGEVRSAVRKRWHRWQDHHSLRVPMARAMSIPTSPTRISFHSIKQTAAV
T4 sequence (P24387 whole entry): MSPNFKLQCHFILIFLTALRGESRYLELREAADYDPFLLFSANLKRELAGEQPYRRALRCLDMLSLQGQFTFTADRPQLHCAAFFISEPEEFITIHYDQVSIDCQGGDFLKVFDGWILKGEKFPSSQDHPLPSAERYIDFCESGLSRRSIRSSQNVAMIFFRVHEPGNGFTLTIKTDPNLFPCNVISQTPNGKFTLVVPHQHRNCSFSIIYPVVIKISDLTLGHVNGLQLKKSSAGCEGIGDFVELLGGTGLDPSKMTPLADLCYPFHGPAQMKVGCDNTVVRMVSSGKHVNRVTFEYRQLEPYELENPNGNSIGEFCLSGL

[22] = molecular target: T4, Corticotropin-releasing factor receptor 2/Corticotropin-releasing factor-binding protein; experiment: activators of CRF receptor 2 with binding protein – uHTS hits, confirmation (AID 602473); assay type: functional; settings: read-out: EC50_Mean
[23] = microbe, parasite or virus in culture; assay type: functional; settings: Mycobacterium tuberculosis
H4 = experiment: Luminescence Cell-Based Dose Response HTS to Identify Activators of 5'UTR Stem-Loop Driven Prion Protein mRNA Translation in H4 Neuroglioblastoma Cells. [Related pubchem assays: 1829 (Project Summary), 1814 (Primary HTS)]; assay type: functional; settings: Homo sapiens
[24] = molecular target: T2, Oxysterols receptor LXR-beta; assay type: functional, cell-based
[25] = Luminescence Cell-Based Dose Confirmation to Identify Activators of 5'UTR Stem-Loop Driven Alpha-Synuclein mRNA Translation in H4 Neuroglioblastoma Cells. [Related pubchem assays: 1829 (Project Summary), 1814 (Primary HTS)]; assay type: functional
[26] = Luminescence Cell-Based Dose Response HTS to Identify Activators of Luciferase Translation or Activity in H4 […] Cells. [Related pubchem assays: 1829 (Project Summary), 1814 (Primary HTS)]; assay type: functional
[27] = Luminescence Cell-Based Dose Confirmation HTS to Identify Activators of 5'UTR Stem-Loop Driven Alpha-Synuclein mRNA Translation in H4 Neuroglioblastoma Cells. [Related pubchem assays: 1829 (Project Summary), 1814 (Primary HTS)]; assay type: functional
[28] = Luminescence Cell-Based Dose Response to Identify Activators of Luciferase Translation or Activity in H4-C Neuroglioblastoma Cells. [Related pubchem assays: 1829 (Project Summary), 1814 (Primary HTS)]; assay type: functional
cells [29] = experiment: cells; remark: listed apart in the source
[30] = HGIII-sPLA2 enzyme inhibition potency – biochemical, QFRET, IC50, dose response (AID 743457);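 also: green fluorescence rise as the enzyme cleaves BODIPY PC-A2 in liposomes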
[31] = Luminescence Cell-Based Dose Response to Identify Activators of 5'UTR Stem-Loop Driven Prion Protein mRNA Translation in H4-C Neuroglioblastoma Cells. [Related pubchem assays: 1829 (Project Summary), 1814 (Primary HTS)]; assay type: functional

COc1ccc(NC(=O)C2CCCN(S(=O)(=O)c3cccnc3)C2)cc1 (stereo not drawn)
IC50 [1]: > 100 µM (not active)

O=C(c1ccc2c(=O)n(Cc3ccc4c(c3)OCO4)c(=S)[nH]c2c1)N1CCCCC1
IC50 (Ephrin type-A receptor 4): > 100 µM (not active)

N#Cc1c(O)nc(SCc2ccc(F)cc2)nc1-c1ccco1
IC50 (cells [2]): > 138 µM (inactive)
IC50 [3]: 13.6 µM (not active)
IC50 (Major prion protein): 1.02 µM (active)

O=C(NCCc1c[nH]c2ccccc12)c1cnccn1
EC50 [4]: > 67.5 µM (inactive)
IC50 [5]: > 67.5 µM (inactive)
IC50 [6]: > 109 µM (inactive)
IC50 [7]: > 83.3 µM (inactive)

Cc1cc(NC(=O)C2CC2)ncc1NC(=O)C12CC3CC(CC(C3)C1)C2
EC50 [8]: 15.7 µM (not active)

Cc1ccccc1-c1nnc(S)o1
IC50 (cells [2]): > 138 µM (inactive)
EC50 [9]: 9.69 µM (active)
IC50 [3]: 55.5 µM (not active)
EC50 [10]: > 79.4 µM (not active)
IC50 (Major prion protein): 5.75 µM (active)
EC50 [11]: 71.9 µM (inactive)

Cc1cc(COc2ccccc2OCCN2CCN(C)CC2)no1
IC50 [1]: > 100 µM (not active)

C=CCSc1nc2ccccc2n1C(=O)/C=C/c1cc(OC)c(OC)c(OC)c1
EC50 [8]: 0.27 µM (active)
EC50 [12]: 10.3 µM (inconclusive)
EC50 (BJ [13]): > 150 µM (inconclusive)
EC50 [14]: 2.66 µM (active)
EC50 (BJ [15]): 2.56 µM (inconclusive)
AC50 [16]: 14.2 µM (active)
AC50 [17]: 1.13 µM (active)
AC50 [18]: 63.8 µM (active)
IC50 [19]: 71.8 µM (inactive)
EC50 (BJ [20]): 3.4 µM (active)

CCCc1n[nH]c(SCc2ccc(Cl)cc2Cl)n1
IC50 [21]: > 47.1 µM (inactive)
IC50 [6]: > 109 µM (inactive)
EC50 [22]: > 53 µM (inactive)
IC50 [7]: > 83.3 µM (inactive)

C=CCn1c(=O)/c(=C/c2cc(OC)c(OC)c(OC)c2)s/c1=C(/C#N)c1nc2ccccc2n1C
EC50 [22]: 13.3 µM (active)
IC50 (Ephrin type-A receptor 4): > 100 µM (not active)

C=CCS/C(N)=N\N=C\c1c(O)ccc2ccccc12
CC50 [23]: > 40 µM (active)
EC50 (H4): < 0.1 µM (active)
EC50 [24]: > 67.5 µM (inactive)
EC50 [25]: 0.426 µM (active)
EC50 [26]: 0.902 µM (active)
EC50 [27]: 9.96 µM (active)
EC50 [28]: 0.324 µM (active)
EC50 (cells [29]): > 67.5 µM (inactive)
IC50 [30]: > 122 µM (inactive)
EC50 [31]: 0.313 µM (active)
